Measured values reported in PMC12040169 (PLOS Biology, 2025).

Experiment: in vitro
Settings: human, hela cells, % viability

Structure (SMILES)	viability at 28.5 h, 10 µM
COc1ccc2[nH]c3c(c2c1)CCN(C(=O)CNCc1ccc(OC)c(OC)c1)C31CCN(CCOc2ccccc2)C1 (stereo not shown) [CBK076736T]	75%
CCOC(=O)C(C)n1nc(CC)n2c(cc3ccsc32)c1=O (stereo not shown) [CBK284127]	103%
CC(=O)Nc1nc(C(=O)N2CCOC(c3ccc(F)cc3)C2)cs1 (stereo not shown) [CBK244238]	99.3%
C(=N\n1cnnc1)/c1ccccc1OCc1cccc2ccccc12 [CBK263864]	94.6%
O=C(c1ccncc1)N1CCCC(c2cc3ccccc3cn2)C1 (stereo not shown) [CBK285166]	87%
Cc1cc(=O)oc2ccc(OCC(=O)Nc3ccc(S(=O)(=O)O)cc3)cc12 [CBK263185N]	100%
O=C(C1=C(O)C(=O)N(CCCn2ccnc2)C1c1ccncc1)c1ccc(F)cc1 (stereo not shown) [CBK264601]	93.7%
O=C1CCCN1CC#CCN1CCN(Cc2ccccc2)CC1 [CBK023770C]	96.2%
CC(CCN1CCN(Cc2ccccc2)CC1)c1ccccc1 (stereo not shown) [CBK261902]	89.1%
Cc1ccc(S(=O)(=O)Nc2ccsc2C(=O)Nc2ccc(F)cc2)cc1 [CBK004571]	91%
CCc1nn(CC(=O)N2CCCC(C)C2)c(=O)c2cc3occc3n12 (stereo not shown) [CBK283657]	79.3%
O=C(c1c[nH]c2ccccc12)C(F)(F)C(F)(F)F [CBK007222]	101%
CCCc1[nH]nc(O)c1Cc1ccc(C(C)(C)C)cc1 [CBK075028]	79.5%
Cc1ccc(-n2ncc3c(=O)n(CC(=O)Nc4ccc(C)cc4C)cnc32)cc1 [CBK287535]	83.4%
Cc1cc(C)n(CCCC(=O)N2CCC3(CCCO3)CC2)n1 [CBK304397]	102%
O=S(=O)(/C=C/c1ccccc1)Nc1cccc2[nH]ccc12 [CBK155772]	103%
CNC(=O)c1ccc(-c2ccc3[nH]ccc3c2)nc1N(C)C [CBK106146]	90.9%
COc1ncc(-c2nccnc2Oc2cccc(NC(C)=O)c2)c(OC)n1 [CBK106747]	89.6%
O=C(Nc1nnc(C2=COCCO2)o1)c1ccco1 [CBK287412]	95.5%
Cc1cc(Br)cc(C)c1OCC(=O)NNC(=O)Cc1cccc2ccccc12 [CBK267151]	95.2%
OCc1ncccc1OCCOC1CCCCO1 (stereo not shown) [CBK045702]	97.5%
O=C(NCCNCc1ccco1)c1ccc(F)cc1 [CBK266873G]	103%

Structure (SMILES)	viability at 28.5 h, 10 µM
CN1CCN(c2nc(NS(=O)(=O)c3cccc(C(F)(F)F)c3)cc3ccccc23)CC1 [CBK200013C]	98.6%
O=C(O)c1cc(S(=O)(=O)NCc2ccc(Cl)cc2Cl)ccc1O [CBK296924]	94.7%
COC(=O)c1cccn2cc(CN3CCOCC3(C)C)nc12 [CBK304879]	93.8%
C[C@H](Nc1nc(-c2ccoc2)cnc1N)c1ccccc1 [CBK063707]	105%
Cc1cccn2c(CN3CC(O)C3)c(C(=O)N3CCCCC3)nc12 [CBK306662]	88.3%
O=c1[nH]c(=O)c2cc(S(=O)(=O)Nc3ccccc3-c3ccccc3)ccc2[nH]1 [CBK286374]	102%
CN(CC(=O)Nc1sc2c(c1C#N)CCCC2)Cc1cnn(C)c1 [CBK304618]	92.8%
CN1CCN(C(=O)c2ccc(-c3cnc(N)c(-c4ccc(O)cc4)n3)cc2F)CC1 [CBK200421]	90.6%
CN(CCCc1cnn(C)c1)c1nc(N)nc2c1CCCC2 [CBK306766]	96.5%
CCn1cc(C(=O)N2CCN(Cc3ccco3)C[C@@H]2C(C)C)cn1 [CBK284307]	97.7%
CC(C)Cn1c(=O)[nH]c2ncc(-c3ccco3)nc21 [CBK064353]	91.9%
CC(C)C(NS(=O)(=O)c1ccc([N+](=O)[O-])cc1)C(C)C [CBK267656]	94.8%
COc1ccc(-c2sc(C(=O)O)c(C)c2C#N)cc1 [CBK019922]	101%
O=C(NCC(=O)N1CCc2ccccc2C1)C1CCCCC1 [CBK306049]	107%
Cc1nc(-c2ccc(NC(=O)C3CC=CCC3C(=O)O)cc2)cs1 (stereo not shown) [CBK299815]	99.4%
Cc1ccc2ncc(C(=O)Nc3ccc(F)cc3F)c(=O)n2c1 [CBK287286]	95.6%
Cc1nc2cc(OCc3nc(C(=O)NCC4CCOC4)co3)ccc2s1 (stereo not shown) [CBK307508]	86.1%
Cc1[nH]c2ccccc2c1C(=O)CSc1nnc(Cc2cccs2)n1C [CBK268663]	105%
Cc1cc2c(o1)CCc1sc(N(C)C(=O)C3CCCO3)nc1-2 (stereo not shown) [CBK281932]	80.3%
CCNS(=O)(=O)c1ccc(NC(=O)Nc2cc(C)ccc2OC)cc1 [CBK266850]	106%
CC(=O)Nc1ccc(S(=O)(=O)N2CCN(Cc3ccc([N+](=O)[O-])cc3)CC2)cc1 [CBK264231G]	94.3%
O=C(c1ccco1)N(CCCn1ccnc1)c1nc2c(F)cccc2s1 [CBK287758]	86.4%

Structure (SMILES)	viability at 28.5 h, 10 µM
COc1cc(/C=N/n2cnnc2)ccc1OCc1cccc(C(=O)O)c1 [CBK264249]	108%
COc1ccc(C(NC(=O)C2CCC(N)CC2)c2ccccc2C)cn1 (stereo not shown) [CBK078551]	92%
O=C(Nc1cccc(-c2cccc(F)c2)c1)c1ccccc1Cn1cncn1 [CBK285735]	87.4%
C[C@@H](Nc1nc(-c2cccc3ncccc23)cnc1N)c1ccccc1 [CBK063755]	107%
Cc1ccc2oc(-c3ccc(C)c(NC(=O)c4cc([N+](=O)[O-])ccc4Cl)c3)nc2c1 [CBK263055]	94.5%
CC(=O)c1ccc(C(=O)N(C)Cc2ccc(F)cc2)s1 [CBK296660]	99.8%
CCc1nc(CC(=O)N2CCOC(c3ccc(F)cc3)C2)cs1 (stereo not shown) [CBK304083]	87%
Cc1ccc(CN2CCCN(C(=O)Cn3nc4ccccn4c3=O)CC2)cc1 [CBK297768]	79.7%
Cn1c(SCC(=O)c2ccccc2)nnc1-c1ccc(NC(=O)c2ccccc2Cl)cc1 [CBK264357]	95%
CCOc1cccc(CNc2ccc(O)cc2)c1OCc1ccccc1Cl [CBK074473]	87.7%
Cc1nnsc1C(=O)Nc1ncn(CC(=O)N2CCCCCC2)n1 [CBK305522]	96.9%
CC(Nc1cc(Cl)c(C(F)(F)F)cc1[N+](=O)[O-])c1ccc2[nH]c(=O)[nH]c2c1 (stereo not shown) [CBK297721]	86.7%
CCCc1cc(C(=O)OC)c(NC(=O)c2c(C)noc2C)s1 [CBK058088]	92.5%
N/C(=N\OC(=O)COc1ccc2ccccc2c1)c1ccncc1 [CBK263737]	89.1%
O=C(NCCNc1cnccn1)c1cncc(Br)c1 [CBK304278]	111%
Cc1nc2c(C(=O)N3CCNC(=O)C3)cnn2c(C)c1Cc1ccccc1 [CBK162197]	90.3%
Cc1ccc(S(=O)(=O)N(CC(=O)NCC2CCCO2)c2ccccc2)cc1 (stereo not shown) [CBK264140]	90.9%
CC(C)(C)c1cn(C[C@H]2CC3CCN2C[C@@H]3C(=O)NCc2ccc(F)cc2)nn1 (stereo partly shown) [CBK289081]	102%
Cc1cc(NC(=O)c2cscn2)c2ccccc2n1 [CBK116275]	85.6%
CC(=O)N1CCC(C(=O)NC(=O)NCCc2ccccc2)CC1 [CBK034851]	96.9%
